Experimental data as given in paper PMC9817970 (Cancers, 2022).

Key:
Test in all cases: Kinase panel profiling
Type in all cases: biochemical
Details in all cases: 10 μM ATP
[1] = target: T1, ASK1/MAP3K5 (Homo sapiens, UniProt Q99683)
T1 construct: purchased Reaction Biology Corp
Experimental: (§1) Kinase panel profiling was conducted by Reaction Biology Corp. (San Diego, CA, USA). A single dose (1.0 μM) of 6r was tested against 371 recombinant human kinases in the presence of 10 μM ATP.

[2] = target: T2, AURORA B (Homo sapiens, UniProt Q96GD4)
T2 construct: purchased Reaction Biology Corp
Experimental: as §1

[3] = target: T3, BRK (Homo sapiens, UniProt Q13882)
T3 construct: purchased Reaction Biology Corp
Experimental: as §1

[4] = target: T4, BRSK2 (Homo sapiens, UniProt Q8IWQ3)
T4 construct: purchased Reaction Biology Corp
Experimental: as §1

[5] = target: T5, CAMK1b (Homo sapiens, UniProt Q6P2M8)
T5 construct: purchased Reaction Biology Corp
Experimental: as §1

[6] = target: T6, CAMKK2 (Homo sapiens, UniProt Q96RR4)
T6 construct: purchased Reaction Biology Corp
Experimental: as §1

[7] = target: T7, CDK18/cyclin Y (PCTK3) (Homo sapiens, UniProt Q07002)
T7 construct: purchased Reaction Biology Corp
Experimental: as §1

[8] = target: T8, CDK4/cyclin D3 (Homo sapiens, UniProt P11802)
T8 construct: purchased Reaction Biology Corp
Experimental: as §1

[9] = target: T9, CHK2 (Homo sapiens, UniProt O96017)
T9 construct: purchased Reaction Biology Corp
Experimental: as §1

[10] = target: T10, CK1G3 (Homo sapiens, UniProt Q9Y6M4)
T10 construct: purchased Reaction Biology Corp
T10 sequence (Q9Y6M4 whole entry): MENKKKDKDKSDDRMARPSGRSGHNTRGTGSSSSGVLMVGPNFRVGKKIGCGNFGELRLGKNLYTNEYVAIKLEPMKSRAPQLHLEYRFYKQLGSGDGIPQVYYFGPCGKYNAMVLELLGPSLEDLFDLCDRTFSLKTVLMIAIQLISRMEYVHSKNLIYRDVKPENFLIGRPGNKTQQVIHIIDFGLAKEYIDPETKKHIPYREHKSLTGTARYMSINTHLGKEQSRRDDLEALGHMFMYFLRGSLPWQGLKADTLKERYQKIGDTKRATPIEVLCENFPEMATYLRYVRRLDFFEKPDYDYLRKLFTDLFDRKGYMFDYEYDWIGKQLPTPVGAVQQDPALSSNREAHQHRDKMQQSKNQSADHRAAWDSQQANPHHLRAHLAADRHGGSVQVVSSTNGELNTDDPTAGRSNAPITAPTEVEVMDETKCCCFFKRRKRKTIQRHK
Experimental: as §1

[11] = target: T11, CK1epsilon (Homo sapiens, UniProt P49674)
T11 construct: purchased Reaction Biology Corp
Experimental: as §1

[12] = target: T12, CK2a2 (Homo sapiens, UniProt P19784)
T12 construct: purchased Reaction Biology Corp
T12 sequence (P19784 whole entry): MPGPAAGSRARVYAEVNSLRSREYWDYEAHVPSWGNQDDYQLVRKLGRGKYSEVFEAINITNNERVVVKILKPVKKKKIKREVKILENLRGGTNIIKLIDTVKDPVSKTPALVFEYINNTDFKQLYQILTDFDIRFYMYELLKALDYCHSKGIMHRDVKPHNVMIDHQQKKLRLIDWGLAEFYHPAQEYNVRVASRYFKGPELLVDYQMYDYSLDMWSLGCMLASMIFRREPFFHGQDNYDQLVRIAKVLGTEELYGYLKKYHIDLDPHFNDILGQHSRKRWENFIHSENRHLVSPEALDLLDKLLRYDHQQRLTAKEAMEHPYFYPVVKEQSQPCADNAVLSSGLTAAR
Experimental: as §1

[13] = target: T13, EGFR (Homo sapiens, UniProt P00533)
T13 construct: purchased Reaction Biology Corp
Experimental: as §1

[14] = target: T14, ERBB4/HER4 (Homo sapiens, UniProt Q15303)
T14 construct: purchased Reaction Biology Corp
T14 sequence (Q15303 26-1308): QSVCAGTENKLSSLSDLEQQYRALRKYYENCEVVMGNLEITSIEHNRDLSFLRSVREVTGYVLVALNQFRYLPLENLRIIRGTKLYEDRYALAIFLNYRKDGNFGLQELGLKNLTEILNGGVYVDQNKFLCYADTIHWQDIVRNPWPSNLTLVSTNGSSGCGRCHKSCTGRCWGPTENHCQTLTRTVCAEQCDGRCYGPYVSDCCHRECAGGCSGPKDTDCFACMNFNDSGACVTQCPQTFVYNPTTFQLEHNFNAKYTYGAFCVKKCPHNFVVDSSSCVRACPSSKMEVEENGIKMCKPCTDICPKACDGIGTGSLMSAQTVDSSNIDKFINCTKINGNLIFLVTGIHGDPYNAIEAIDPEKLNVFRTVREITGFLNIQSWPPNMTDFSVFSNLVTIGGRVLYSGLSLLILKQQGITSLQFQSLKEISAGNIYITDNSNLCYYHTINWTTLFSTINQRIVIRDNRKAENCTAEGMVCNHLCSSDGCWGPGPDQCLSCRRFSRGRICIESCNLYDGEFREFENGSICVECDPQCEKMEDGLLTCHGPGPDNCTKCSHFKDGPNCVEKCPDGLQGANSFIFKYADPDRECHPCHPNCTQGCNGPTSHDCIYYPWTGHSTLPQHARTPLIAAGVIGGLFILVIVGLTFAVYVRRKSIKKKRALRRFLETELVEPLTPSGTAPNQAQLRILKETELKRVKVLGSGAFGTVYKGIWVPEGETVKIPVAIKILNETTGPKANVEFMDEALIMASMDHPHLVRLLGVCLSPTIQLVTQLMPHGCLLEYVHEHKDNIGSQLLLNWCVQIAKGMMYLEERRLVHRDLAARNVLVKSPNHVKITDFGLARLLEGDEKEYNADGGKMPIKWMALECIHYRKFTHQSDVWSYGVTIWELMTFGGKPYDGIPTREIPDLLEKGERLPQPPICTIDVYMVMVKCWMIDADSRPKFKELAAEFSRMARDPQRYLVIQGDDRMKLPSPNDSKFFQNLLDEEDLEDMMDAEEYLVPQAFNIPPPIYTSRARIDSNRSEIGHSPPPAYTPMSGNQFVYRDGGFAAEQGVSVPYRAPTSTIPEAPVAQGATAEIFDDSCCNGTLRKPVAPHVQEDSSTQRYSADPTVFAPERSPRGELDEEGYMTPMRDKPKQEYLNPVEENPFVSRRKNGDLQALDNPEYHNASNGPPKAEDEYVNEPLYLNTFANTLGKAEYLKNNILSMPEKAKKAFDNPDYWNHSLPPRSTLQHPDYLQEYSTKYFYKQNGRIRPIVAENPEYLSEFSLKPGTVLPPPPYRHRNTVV
Experimental: as §1

[15] = target: T15, GRK2 (Homo sapiens, UniProt P25098)
T15 construct: purchased Reaction Biology Corp
Experimental: as §1

[16] = target: T16, ITK (Homo sapiens, UniProt Q08881)
T16 construct: purchased Reaction Biology Corp
Experimental: as §1

[17] = target: T17, JNK1 (Homo sapiens, UniProt P45983)
T17 construct: purchased Reaction Biology Corp
Experimental: as §1

[18] = target: T18, LCK2/ICK (Homo sapiens, UniProt Q9UPZ9)
T18 construct: purchased Reaction Biology Corp
Experimental: as §1

[19] = target: T19, MAST3 (Homo sapiens, UniProt O60307)
T19 construct: purchased Reaction Biology Corp
T19 sequence (O60307 whole entry): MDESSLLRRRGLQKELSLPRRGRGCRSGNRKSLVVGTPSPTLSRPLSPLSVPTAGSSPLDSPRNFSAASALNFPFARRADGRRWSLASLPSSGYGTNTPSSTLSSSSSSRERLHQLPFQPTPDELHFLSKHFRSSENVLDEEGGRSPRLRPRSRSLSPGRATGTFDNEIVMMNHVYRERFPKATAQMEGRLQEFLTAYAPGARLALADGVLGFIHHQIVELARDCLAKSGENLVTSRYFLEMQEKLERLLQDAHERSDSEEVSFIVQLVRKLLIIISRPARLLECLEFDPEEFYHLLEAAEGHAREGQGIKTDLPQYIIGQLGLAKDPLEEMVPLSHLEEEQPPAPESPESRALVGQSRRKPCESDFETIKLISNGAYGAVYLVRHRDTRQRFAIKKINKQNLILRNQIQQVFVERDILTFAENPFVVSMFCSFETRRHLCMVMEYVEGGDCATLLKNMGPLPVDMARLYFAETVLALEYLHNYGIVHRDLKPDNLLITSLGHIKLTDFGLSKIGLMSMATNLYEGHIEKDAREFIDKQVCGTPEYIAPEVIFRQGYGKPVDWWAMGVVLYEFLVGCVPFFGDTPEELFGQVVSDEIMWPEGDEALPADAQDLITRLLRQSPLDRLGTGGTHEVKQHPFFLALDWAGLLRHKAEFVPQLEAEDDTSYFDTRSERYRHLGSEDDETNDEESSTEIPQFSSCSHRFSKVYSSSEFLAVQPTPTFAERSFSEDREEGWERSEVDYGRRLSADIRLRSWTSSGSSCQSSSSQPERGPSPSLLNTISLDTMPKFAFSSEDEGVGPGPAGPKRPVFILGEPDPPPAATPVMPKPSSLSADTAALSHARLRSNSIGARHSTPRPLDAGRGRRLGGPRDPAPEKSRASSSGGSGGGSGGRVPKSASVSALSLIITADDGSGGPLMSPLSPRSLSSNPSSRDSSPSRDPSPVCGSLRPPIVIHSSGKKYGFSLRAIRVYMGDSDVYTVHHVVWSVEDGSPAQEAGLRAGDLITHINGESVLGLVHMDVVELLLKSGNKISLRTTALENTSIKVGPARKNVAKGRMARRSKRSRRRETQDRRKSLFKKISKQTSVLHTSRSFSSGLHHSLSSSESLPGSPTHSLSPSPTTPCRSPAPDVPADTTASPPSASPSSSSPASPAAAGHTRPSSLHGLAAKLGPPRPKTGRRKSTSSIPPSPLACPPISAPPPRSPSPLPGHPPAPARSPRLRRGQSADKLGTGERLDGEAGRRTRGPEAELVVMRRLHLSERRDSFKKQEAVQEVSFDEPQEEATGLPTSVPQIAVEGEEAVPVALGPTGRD
Experimental: as §1

[20] = target: T20, MEK1 (Homo sapiens, UniProt Q02750)
T20 construct: purchased Reaction Biology Corp
Experimental: as §1

[21] = target: T21, MRCKb/CDC42BPB (Homo sapiens, UniProt Q9Y5S2)
T21 construct: purchased Reaction Biology Corp
Experimental: as §1

[22] = target: T22, MST1/STK4 (Homo sapiens, UniProt Q13043)
T22 construct: purchased Reaction Biology Corp
T22 sequence (Q13043 whole entry): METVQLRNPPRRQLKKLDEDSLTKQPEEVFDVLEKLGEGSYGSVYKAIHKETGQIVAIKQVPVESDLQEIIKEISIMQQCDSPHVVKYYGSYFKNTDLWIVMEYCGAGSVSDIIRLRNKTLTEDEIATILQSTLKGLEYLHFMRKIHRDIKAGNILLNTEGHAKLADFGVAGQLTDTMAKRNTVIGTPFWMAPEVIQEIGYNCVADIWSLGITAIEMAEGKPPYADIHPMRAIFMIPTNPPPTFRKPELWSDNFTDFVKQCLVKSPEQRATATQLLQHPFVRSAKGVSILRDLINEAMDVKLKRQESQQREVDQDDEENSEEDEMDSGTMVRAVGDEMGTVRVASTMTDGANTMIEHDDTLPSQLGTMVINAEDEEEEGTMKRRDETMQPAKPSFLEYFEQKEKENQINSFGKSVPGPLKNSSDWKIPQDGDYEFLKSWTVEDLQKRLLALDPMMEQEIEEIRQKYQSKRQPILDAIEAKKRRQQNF
Experimental: as §1

[23] = target: T23, MST4 (Homo sapiens, UniProt Q9P289)
T23 construct: purchased Reaction Biology Corp
Experimental: as §1

[24] = target: T24, NEK11 (Homo sapiens, UniProt Q8NG66)
T24 construct: purchased Reaction Biology Corp
Experimental: as §1

[25] = target: T25, NEK7 (Homo sapiens, UniProt Q8TDX7)
T25 construct: purchased Reaction Biology Corp
T25 sequence (Q8TDX7 whole entry): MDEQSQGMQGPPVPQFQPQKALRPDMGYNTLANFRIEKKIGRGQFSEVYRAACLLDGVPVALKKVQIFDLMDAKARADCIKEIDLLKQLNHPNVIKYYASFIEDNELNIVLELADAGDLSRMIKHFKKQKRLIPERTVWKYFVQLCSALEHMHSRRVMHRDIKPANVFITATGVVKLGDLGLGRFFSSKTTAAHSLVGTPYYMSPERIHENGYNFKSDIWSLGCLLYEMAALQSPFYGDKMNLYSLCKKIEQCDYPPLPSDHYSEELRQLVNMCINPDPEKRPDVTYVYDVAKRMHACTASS
Experimental: as §1

[26] = target: T26, OSR1/OXSR1 (Homo sapiens, UniProt O95747)
T26 construct: purchased Reaction Biology Corp
Experimental: as §1

[27] = target: T27, PBK/TOPK (Homo sapiens, UniProt Q96KB5)
T27 construct: purchased Reaction Biology Corp
Experimental: as §1

[28] = target: T28, PDGFRa (Homo sapiens, UniProt P16234)
T28 construct: purchased Reaction Biology Corp
Experimental: as §1

[29] = target: T29, PKCd (Homo sapiens, UniProt Q05655)
T29 construct: purchased Reaction Biology Corp
Experimental: as §1

[30] = target: T30, PLK1 (Homo sapiens, UniProt P53350)
T30 construct: purchased Reaction Biology Corp
Experimental: as §1

[31] = target: T31, SGK2 (Homo sapiens, UniProt Q9HBY8)
T31 construct: purchased Reaction Biology Corp
Experimental: as §1

[32] = target: T32, STK16 (Homo sapiens, UniProt O75716)
T32 construct: purchased Reaction Biology Corp
T32 sequence (O75716 whole entry): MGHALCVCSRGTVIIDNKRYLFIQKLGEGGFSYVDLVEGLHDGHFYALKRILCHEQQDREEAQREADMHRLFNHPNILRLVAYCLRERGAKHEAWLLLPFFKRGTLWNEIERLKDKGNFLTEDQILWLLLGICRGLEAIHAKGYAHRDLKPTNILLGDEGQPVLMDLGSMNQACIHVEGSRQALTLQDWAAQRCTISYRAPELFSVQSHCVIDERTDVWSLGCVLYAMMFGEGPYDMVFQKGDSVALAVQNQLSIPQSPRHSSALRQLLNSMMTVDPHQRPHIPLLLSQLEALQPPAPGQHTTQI
Experimental: as §1

[33] = target: T33, STK21/CIT (Homo sapiens, UniProt O14578)
T33 construct: purchased Reaction Biology Corp
Experimental: as §1

[34] = target: T34, STK22D/TSSK1 (Homo sapiens, UniProt Q9BXA7)
T34 construct: purchased Reaction Biology Corp
T34 sequence (Q9BXA7 whole entry): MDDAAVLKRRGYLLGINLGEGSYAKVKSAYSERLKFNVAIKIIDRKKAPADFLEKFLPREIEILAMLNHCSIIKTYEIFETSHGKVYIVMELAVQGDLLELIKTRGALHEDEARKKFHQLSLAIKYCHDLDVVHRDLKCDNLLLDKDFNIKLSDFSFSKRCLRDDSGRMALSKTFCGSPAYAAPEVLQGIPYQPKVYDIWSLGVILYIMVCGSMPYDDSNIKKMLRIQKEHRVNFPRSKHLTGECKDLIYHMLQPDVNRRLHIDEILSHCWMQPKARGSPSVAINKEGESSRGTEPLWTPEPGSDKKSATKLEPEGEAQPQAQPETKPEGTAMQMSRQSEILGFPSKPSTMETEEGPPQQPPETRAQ
Experimental: as §1

[35] = target: T35, TIE2/TEK (Homo sapiens, UniProt Q02763)
T35 construct: purchased Reaction Biology Corp
Experimental: as §1

[36] = target: T36, TLK1 (Homo sapiens, UniProt Q9UKI8)
T36 construct: purchased Reaction Biology Corp
Experimental: as §1

[37] = target: T37, TSSK2 (Homo sapiens, UniProt Q96PF2)
T37 construct: purchased Reaction Biology Corp
Experimental: as §1

[38] = target: T38, ULK2 (Homo sapiens, UniProt Q8IYT8)
T38 construct: purchased Reaction Biology Corp
Experimental: as §1

[39] = target: T39, VRK1 (Homo sapiens, UniProt Q99986)
T39 construct: purchased Reaction Biology Corp
Experimental: as §1

[40] = target: T40, WNK2 (Homo sapiens, UniProt Q9Y3S1)
T40 construct: purchased Reaction Biology Corp
Experimental: as §1

[41] = target: T41, c-MET (Homo sapiens, UniProt P08581)
T41 construct: purchased Reaction Biology Corp
Experimental: as §1

[42] = target: T42, c-Src (Homo sapiens, UniProt P12931)
T42 construct: purchased Reaction Biology Corp
Experimental: as §1

Q: Which results are given for `Cc1ccc(NC(=O)c2ccc(CN3CCN(C)CC3)c(C(F)(F)F)c2)cc1-c1cnc2sc(N)nc2c1` [6r]?
A: inhibition at 1 µM [1]: 0%; inhibition at 1 µM [2]: 0%; inhibition at 1 µM [3]: 37.5%; inhibition at 1 µM [4]: 7.2%; inhibition at 1 µM [5]: 5.4%; inhibition at 1 µM [6]: 20.5%; inhibition at 1 µM [7]: 5.1%; inhibition at 1 µM [8]: 9.8%; inhibition at 1 µM [9]: 4.8%; inhibition at 1 µM [10]: 32%; inhibition at 1 µM [11]: 24.2%; inhibition at 1 µM [12]: 1%; inhibition at 1 µM [13]: 21.4%; inhibition at 1 µM [14]: 73.9%; inhibition at 1 µM [15]: 0%; inhibition at 1 µM [16]: 3.8%; inhibition at 1 µM [17]: 14%; inhibition at 1 µM [18]: 60.8%; inhibition at 1 µM [19]: 0%; inhibition at 1 µM [20]: 14.4%; inhibition at 1 µM [21]: 2.4%; inhibition at 1 µM [22]: 4.3%; inhibition at 1 µM [23]: 15.7%; inhibition at 1 µM [24]: 18.3%; inhibition at 1 µM [25]: 5.4%; inhibition at 1 µM [26]: 5.5%; inhibition at 1 µM [27]: 4.3%; inhibition at 1 µM [28]: 96.7%; inhibition at 1 µM [29]: 10.1%; inhibition at 1 µM [30]: 0%; inhibition at 1 µM [31]: 3.8%; inhibition at 1 µM [32]: 3.6%; inhibition at 1 µM [33]: 5.6%; inhibition at 1 µM [34]: 14.9%; inhibition at 1 µM [35]: 24.4%; inhibition at 1 µM [36]: 0%; inhibition at 1 µM [37]: 0%; inhibition at 1 µM [38]: 0%; inhibition at 1 µM [39]: 1.6%; inhibition at 1 µM [40]: 8.7%; inhibition at 1 µM [41]: 2.7%; inhibition at 1 µM [42]: 68.7%
